Tests used:
[1] = test system: IL-6 production in J774 macrophages; assay: IL-6 production by stimulated J774 macrophages, ELISA of culture supernatants; format: cell-based, mouse; conditions: for effect on IL-6 production: LPS-treated macrophages; for release of IL-6: absence of exogenously-supplied immunostimulatory factors; for production of IL-6: regardless of stimulus: viral ribopolymers, LPS or lipoteichoic acid
Procedure: (§1) J774.1 macrophages were cultured in RPMI 1640 medium containing 15% fetal calf serum in a humidified 37° C. incubator supplied with 5% CO2. Cells were plated at 50% confluency in 96 well format and allowed to attach overnight. For immunostimulation experiments, cells were incubated overnight in 100 μl of the above medium containing sub-maximal stimulatory levels of inducers: 0.1 μg/mL Salmonella lipopolysaccharide (Sigma), 1 μg/mL lipoteichoic acid (Sigma) or sterile, cell-free bacterially conditioned medium at a final concentration of 10^7 cell equivalents/mL. Following incubation, the medium was removed, centrifuged, and stored at −20° C. for subsequent assay for the presence of released cytokines. Preparation of bacterially conditioned medium Pseudomonas aeruginosa strain PAO1 and Lux^+ or Lux^− strains of Salmonella typhimurium 14028 were cultured in Luria Broth overnight. The optical density of the cultures was measured at 600 nm and cell densities calculated through use of a MacFarland's standard. Bacterial cultures were centrifuged and supernatants were filtered through a 0.2 micron sterile filter to remove all bacteria.
(§2) Centrifuged macrophage culture supernatants were assayed for the presence of secreted IL-1 and IL-6 through use of an ELISA kit according to the manufacturer's directions (R&D Systems, Minneapolis, Minn.). Briefly, 10 μl of culture supernatants were bound to test wells precoated with either anti-IL-1 or anti-IL-6 immunoglobulin. Bound cytokine was detected through use of a secondary cytokine-specific antibody tagged with horseradish peroxidase. Assay samples were developed through use of stabilized tetramethylbenzidine and hydrogen peroxide. Cytokine level, directly proportional to the colorimetric signal, was quantitated by measuring sample absorbance at 450 nm.

[2] = test system: IL-1 production in J774 macrophages; assay: IL-1 production by stimulated J774 macrophages, ELISA of culture supernatants; format: cell-based, mouse; conditions: for effect on IL-1 production: LPS-treated macrophages; for release of IL-1: absence of exogenously-supplied immunostimulatory factors
Procedure: as §1, §2

recombinant COX-2 = target: T1, recombinant COX-2 (Homo sapiens, UniProt P35354); assay: Inhibition of recombinant COX-2 prostaglandin synthesis, ELISA for PGE2; format: biochemical
T1 sequence (P35354 18-604): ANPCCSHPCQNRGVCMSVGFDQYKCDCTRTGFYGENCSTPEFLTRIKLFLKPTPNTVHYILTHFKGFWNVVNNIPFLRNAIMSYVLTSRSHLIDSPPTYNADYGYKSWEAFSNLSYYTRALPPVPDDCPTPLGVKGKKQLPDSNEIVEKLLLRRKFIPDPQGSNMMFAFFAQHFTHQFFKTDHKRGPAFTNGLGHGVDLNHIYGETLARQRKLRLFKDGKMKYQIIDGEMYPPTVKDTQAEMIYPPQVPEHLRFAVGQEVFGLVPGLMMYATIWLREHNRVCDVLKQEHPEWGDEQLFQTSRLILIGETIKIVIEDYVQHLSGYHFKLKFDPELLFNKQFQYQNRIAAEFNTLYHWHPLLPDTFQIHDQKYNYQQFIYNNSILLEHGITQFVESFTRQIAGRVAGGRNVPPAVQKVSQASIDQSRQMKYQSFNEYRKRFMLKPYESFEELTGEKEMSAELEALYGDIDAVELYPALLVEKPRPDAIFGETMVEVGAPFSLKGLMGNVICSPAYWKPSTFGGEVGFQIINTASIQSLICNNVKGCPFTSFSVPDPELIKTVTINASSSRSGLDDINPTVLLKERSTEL
Procedure: “Max Inhibition” and “Aspirin/1000 uM” are positive inhibition controls. “Analog/500 uM,” represents the inhibition of prostaglandin synthesis by 500 μM MHF; “AI-2/40 uM” and “AI-2/80 uM” represents the inhibition of prostaglandin synthesis by 40 and 80 μM, respectively of AI-2. “Ribose/500 um” the inhibition of prostaglandin synthesis by 500 μM ribose. Prostaglandin synthesis was indirectly quantitated using an ELISA for PGE2 production.
Extracellular bacterial signals trigger expression of cyclooxygenase-2 (cox-2), which amplifies the cellular IL-6 response by catalyzing production of prostaglandin PGE2.
Aspirin, a non-specific inhibitor of COX-2 served as an inhibition control; prostaglandin synthesis was indirectly quantitated in an ELISA assay.

[3] = test system: nitric oxide production (iNOS activity) in J774 macrophages; assay: Nitric oxide (nitrite) production by LPS-stimulated J774 macrophages; format: cell-based, mouse
Procedure: FIG. 10 is a bar graph showing that AI-2 treatment suppresses nitric oxide production by LPS-stimulated J774 macrophages. “LPS+34,” “LPS+AI-2(5 ul)” and LPS+AI-2(2 ul) represents inhibition by concurrent treatment with LPS and MHF or the indicated amounts of AI-2. “LPS+ribose” is a control to show the amount of nitric oxide production in the absence of an inhibitor.

MM32 = MM32 light production assay (quorum sensing activity); format: cell-based, Vibrio harveyi
From the text: Such agonists and analogs can be readily recognized by their action on the quorum-sensing system of bacteria such as mutant strains of Vibrio harveyi that respond to AI-2 but cannot produce it themselves. For example, AI-2 analogs and agonists can be identified by known techniques, including but not limited to, large-scale screening of compounds through use of the V. harveyi bioassay described in U.S. Pat. No. 6,780,890 and other techniques described therein. Reduction in signaling activity in the presence of a test compound indicates the ability of that compound to, for example, block bacterial pathogenesis by affecting the expression of one or more virulence factors.

[4] = LPS 0.1 μg/mL, concurrent AI-2 40 μM
[5] = LPS-stimulated macrophages, increasing amounts of enzymatically-prepared AI-2

O=C1O[C@H]([C@@H](O)CO)C(O)=C1O [ascorbic acid, reference compound]
effect on IL-6 production [1]: affect neither IL-1 nor IL-6 production | effect on IL-1 production [2]: affect neither IL-1 nor IL-6 production

Nc1ncnc2nc[nH]c12 [adenine, reference compound]
release of IL-6 [1]: neither AI-2 nor its biosynthesis co-products, adenine and homocysteine, cause macrophages to release IL-1 or IL-6 | release of IL-1 [2]: neither AI-2 nor its biosynthesis co-products, adenine and homocysteine, cause macrophages to release IL-1 or IL-6

CC(=O)C(=O)[C@@H](O)CO [AI-2]
reduction of overall concentration of IL-6 [1, 4]: approximately 50% | IL-6 production, dose dependence [1, 5]: increasing suppression | release of IL-6 [1]: neither AI-2 nor its biosynthesis co-products, adenine and homocysteine, cause macrophages to release IL-1 or IL-6 | reduction in IL-6 levels ([1]; macrophages stimulated with LPS (0.1 μg/ml), 5 μl of the AI-2 reaction product): ~50% | IC50 ([1]; read-out: IC50, inhibition of IL-6 production in macrophages): 40 µM | production of IL-6 [1]: decrease production of IL-6 | reduction of overall concentration of IL-1 [2, 4]: approximately 50% | IL-1 production, dose dependence [2, 5]: increasing suppression | release of IL-1 [2]: neither AI-2 nor its biosynthesis co-products, adenine and homocysteine, cause macrophages to release IL-1 or IL-6 | IC50 (recombinant COX-2; read-out: IC50, prostaglandin level produced by recombinant COX-2): 40 µM | nitrite (breakdown product of nitric oxide) level [3]: near baseline levels

O=C[C@H](O)[C@H](O)[C@H](O)CO [ribose, reference compound]
effect on IL-6 production [1]: affect neither IL-1 nor IL-6 production | production of IL-6 [1]: effects no attenuation | effect on IL-1 production [2]: affect neither IL-1 nor IL-6 production | quorum-sensing activity (MM32; 50 μM ribose): lacks quorum-sensing activity | inhibition of PGE2 production (recombinant COX-2; 500 μM ribose): inability of ribose (even at high concentrations, 500 μM) to inhibit PGE2 production

CC1=C(O)C(=O)CO1 [MHF, 5-methyl-4-hydroxy-3(2H)furanone]
IL-6 production ([1]; LPS-stimulated J774 macrophages): suppression of IL-6 production | IL-6 production ([1]; lipoteichoic acid-stimulated J774 macrophages): suppression of IL-6 production | production of IL-6 [1]: decrease production of IL-6 | reduction in IL-6 production ([1]; stimulated J774 macrophages, 500 μM MHF): 50% | concentration at which near maximal attenuation of IL-6 release occurs ([1]; stimulated J774 macrophages, little change at higher concentrations): 877 µM | concentration at which detectable attenuation of IL-6 release occurs ([1]; stimulated J774 macrophages, titration): 105 µM | IL-6 production ([1]; viral ribopolymer (polyCI)-stimulated J774 macrophages): suppression of IL-6 production | quorum sensing activity (MM32): displays quorum sensing activity | quorum-sensing activity (MM32; 500 μg/ml MHF): comparable to 2.5 μL enzymatically-synthesized AI-2 | inhibition of Cox-2 prostaglandin synthetase activity (recombinant COX-2; 500 μM MHF): inhibition of Cox-2 prostaglandin synthetase activity | nitrite (breakdown product of nitric oxide) level [3]: near baseline levels

N[C@@H](CCS)C(=O)O [homocysteine, reference compound]
release of IL-6 [1]: neither AI-2 nor its biosynthesis co-products, adenine and homocysteine, cause macrophages to release IL-1 or IL-6 | release of IL-1 [2]: neither AI-2 nor its biosynthesis co-products, adenine and homocysteine, cause macrophages to release IL-1 or IL-6

From US20050187190A1, “Autoinducer-2 compounds as immunomodulatory agents” (priority 2004, published 2005)
